Test results as given in the NIST ThermoML archive (doi:10.1021/je200862b).
Numbers after ± are expanded uncertainties.

Legend:
[1] = 101 kPa, Liquid; for viscosity: Capillary tube (Ostwald / Ubbelohde) method
[2] = xn = mol fraction of the nth substance listed; details: 101 kPa, Liquid; for viscosity: Capillary tube (Ostwald / Ubbelohde) method; for mass density: Vibrating tube method

CCN(CC)c1ccccc1 [N,N-diethylaniline] gave a viscosity ([1]; 303.15 K) of 1.703 ± 0.31 mPa·s, a mass density ([1]; 303.15 K, Vibrating tube method) of 925.98 ± 2.7 kg/m3 and a viscosity ([1]; 313.15 K) of 1.402 ± 0.2 mPa·s. It also gave a mass density ([1]; 313.15 K, Vibrating tube method) of 917.72 ± 3 kg/m3, a viscosity ([1]; 323.15 K) of 1.049 ± 0.13 mPa·s and a mass density ([1]; 323.15 K, Vibrating tube method) of 912.8 ± 2.4 kg/m3.

CCN(CC)c1ccccc1 [N,N-diethylaniline] + CCC(=O)O gave a viscosity ([2]; 303.15 K, x2 = 0) of 1.703 ± 0.31 mPa·s, a viscosity ([2]; 303.15 K, x2 = 0.1047) of 1.801 ± 0.31 mPa·s and a viscosity ([2]; 303.15 K, x2 = 0.2096) of 2.04 ± 0.31 mPa·s. The viscosity ([2]; 303.15 K, x2 = 0.3142) was 2.404 ± 0.31 mPa·s, the viscosity ([2]; 303.15 K, x2 = 0.4164) was 2.91 ± 0.31 mPa·s and the viscosity ([2]; 303.15 K, x2 = 0.5177) was 3.663 ± 0.31 mPa·s. The viscosity ([2]; 303.15 K, x2 = 0.6097) was 4.04 ± 0.31 mPa·s, the viscosity ([2]; 303.15 K, x2 = 0.7077) was 3.968 ± 0.31 mPa·s and the viscosity ([2]; 303.15 K, x2 = 0.8123) was 3.26 ± 0.31 mPa·s. For the same compound, the viscosity ([2]; 303.15 K, x2 = 0.9156) was 1.532 ± 0.31 mPa·s, the mass density ([2]; 303.15 K, x2 = 0) was 925.98 ± 2.7 kg/m3 and the mass density ([2]; 303.15 K, x2 = 0.1047) was 933.41 ± 2.7 kg/m3. For the same compound, the mass density ([2]; 303.15 K, x2 = 0.2096) was 942.07 ± 2.7 kg/m3, the mass density ([2]; 303.15 K, x2 = 0.3142) was 952.1 ± 2.7 kg/m3 and the mass density ([2]; 303.15 K, x2 = 0.4164) was 963.82 ± 2.7 kg/m3. The mass density ([2]; 303.15 K, x2 = 0.5177) was 977.88 ± 2.7 kg/m3, the mass density ([2]; 303.15 K, x2 = 0.6097) was 989.1 ± 2.7 kg/m3 and the mass density ([2]; 303.15 K, x2 = 0.7077) was 996.15 ± 2.7 kg/m3. It also gave a mass density ([2]; 303.15 K, x2 = 0.8123) of 995 ± 2.7 kg/m3, a mass density ([2]; 303.15 K, x2 = 0.9156) of 990.93 ± 2.7 kg/m3 and a viscosity ([2]; 313.15 K, x2 = 0) of 1.402 ± 0.2 mPa·s. For the same compound, the viscosity ([2]; 313.15 K, x2 = 0.1047) was 1.45 ± 0.2 mPa·s, the viscosity ([2]; 313.15 K, x2 = 0.2096) was 1.59 ± 0.2 mPa·s and the viscosity ([2]; 313.15 K, x2 = 0.3142) was 1.765 ± 0.2 mPa·s. It also gave a viscosity ([2]; 313.15 K, x2 = 0.4164) of 2.118 ± 0.2 mPa·s, a viscosity ([2]; 313.15 K, x2 = 0.5177) of 2.527 ± 0.2 mPa·s and a viscosity ([2]; 313.15 K, x2 = 0.6097) of 2.88 ± 0.2 mPa·s. The viscosity ([2]; 313.15 K, x2 = 0.7077) was 2.737 ± 0.2 mPa·s, the viscosity ([2]; 313.15 K, x2 = 0.8123) was 2.086 ± 0.2 mPa·s and the viscosity ([2]; 313.15 K, x2 = 0.9156) was 1.247 ± 0.2 mPa·s. The mass density ([2]; 313.15 K, x2 = 0) was 917.72 ± 3 kg/m3, the mass density ([2]; 313.15 K, x2 = 0.1047) was 924.61 ± 3 kg/m3 and the mass density ([2]; 313.15 K, x2 = 0.2096) was 932.8 ± 3 kg/m3. For the same compound, the mass density ([2]; 313.15 K, x2 = 0.3142) was 942.21 ± 3 kg/m3, the mass density ([2]; 313.15 K, x2 = 0.4164) was 953.72 ± 3 kg/m3 and the mass density ([2]; 313.15 K, x2 = 0.5177) was 967.27 ± 3 kg/m3. For the same compound, the mass density ([2]; 313.15 K, x2 = 0.6097) was 977.5 ± 3 kg/m3, the mass density ([2]; 313.15 K, x2 = 0.7077) was 983.95 ± 3 kg/m3 and the mass density ([2]; 313.15 K, x2 = 0.8123) was 982.7 ± 3 kg/m3. The mass density ([2]; 313.15 K, x2 = 0.9156) was 980.07 ± 3 kg/m3, the viscosity ([2]; 323.15 K, x2 = 0) was 1.049 ± 0.13 mPa·s and the viscosity ([2]; 323.15 K, x2 = 0.1047) was 1.068 ± 0.13 mPa·s. For the same compound, the viscosity ([2]; 323.15 K, x2 = 0.2096) was 1.173 ± 0.13 mPa·s, the viscosity ([2]; 323.15 K, x2 = 0.3142) was 1.315 ± 0.13 mPa·s and the viscosity ([2]; 323.15 K, x2 = 0.4164) was 1.555 ± 0.13 mPa·s. The viscosity ([2]; 323.15 K, x2 = 0.5177) was 1.865 ± 0.13 mPa·s, the viscosity ([2]; 323.15 K, x2 = 0.6097) was 2.1 ± 0.13 mPa·s and the viscosity ([2]; 323.15 K, x2 = 0.7077) was 1.949 ± 0.13 mPa·s. It also gave a viscosity ([2]; 323.15 K, x2 = 0.8123) of 1.51 ± 0.13 mPa·s, a viscosity ([2]; 323.15 K, x2 = 0.9156) of 0.9723 ± 0.13 mPa·s and a mass density ([2]; 323.15 K, x2 = 0) of 912.8 ± 2.4 kg/m3. The mass density ([2]; 323.15 K, x2 = 0.1047) was 919.51 ± 2.4 kg/m3, the mass density ([2]; 323.15 K, x2 = 0.2096) was 926.38 ± 2.4 kg/m3 and the mass density ([2]; 323.15 K, x2 = 0.3142) was 934.92 ± 2.4 kg/m3. The mass density ([2]; 323.15 K, x2 = 0.4164) was 944.35 ± 2.4 kg/m3, the mass density ([2]; 323.15 K, x2 = 0.5177) was 955.31 ± 2.4 kg/m3 and the mass density ([2]; 323.15 K, x2 = 0.6097) was 965.34 ± 2.4 kg/m3. For the same compound, the mass density ([2]; 323.15 K, x2 = 0.7077) was 971.29 ± 2.4 kg/m3, the mass density ([2]; 323.15 K, x2 = 0.8123) was 974.71 ± 2.4 kg/m3 and the mass density ([2]; 323.15 K, x2 = 0.9156) was 974.19 ± 2.4 kg/m3.

Work on CN(C)c1ccccc1 [N,N-dimethylaniline] yielded a viscosity ([1]; 303.15 K) of 1.174 ± 0.039 mPa·s, a mass density ([1]; 303.15 K, Pycnometric method) of 948.02 ± 2.1 kg/m3 and a viscosity ([1]; 313.15 K) of 0.9823 ± 0.04 mPa·s. For the same compound, the mass density ([1]; 313.15 K, Pycnometric method) was 938.5 ± 2.4 kg/m3, the viscosity ([1]; 323.15 K) was 0.8259 ± 0.036 mPa·s and the mass density ([1]; 323.15 K, Pycnometric method) was 930.72 ± 2 kg/m3.
